In patent US20230167118A1, “DEGRADATION OF BRUTON'S TYROSINE KINASE (BTK) BY CONJUGATION OF BTK INIDBITORS WITH E3 LIGASE LIGAND AND METHODS OF USE” (BEIGENE, LTD., priority 2020, published 2023) one finds IC50 and DC50 data, which are given here for 15 molecules.

Each structure is given as a SMILES string.

The subject of one assay is HEK-293 cells. The assay can be described thus: HEK-293 Cytotoxicity Assay (CellTiter-Glo). It counts as cell-based. As to conditions: Homo sapiens, HEK293, 72 h incubation, CellTiter-Glo luminescence. The procedure, abridged:
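HEK-293 cells treated 72 h with 8 concentrations (4-fold dilutions, 0.2% DMSO final). Viability read by CellTiter-Glo luminescence; IC50 from four-parameter logistic fit of % inhibition.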

For another assay, the target named is T1, BTK (Homo sapiens, UniProt Q06187).
T1 construct: High control=Cell group with added DMSO and without compound, indicating microplate readings without BTK degradation; endogenous in cells; host or cells: TMD-8 cells
T1 sequence (Q06187 whole entry): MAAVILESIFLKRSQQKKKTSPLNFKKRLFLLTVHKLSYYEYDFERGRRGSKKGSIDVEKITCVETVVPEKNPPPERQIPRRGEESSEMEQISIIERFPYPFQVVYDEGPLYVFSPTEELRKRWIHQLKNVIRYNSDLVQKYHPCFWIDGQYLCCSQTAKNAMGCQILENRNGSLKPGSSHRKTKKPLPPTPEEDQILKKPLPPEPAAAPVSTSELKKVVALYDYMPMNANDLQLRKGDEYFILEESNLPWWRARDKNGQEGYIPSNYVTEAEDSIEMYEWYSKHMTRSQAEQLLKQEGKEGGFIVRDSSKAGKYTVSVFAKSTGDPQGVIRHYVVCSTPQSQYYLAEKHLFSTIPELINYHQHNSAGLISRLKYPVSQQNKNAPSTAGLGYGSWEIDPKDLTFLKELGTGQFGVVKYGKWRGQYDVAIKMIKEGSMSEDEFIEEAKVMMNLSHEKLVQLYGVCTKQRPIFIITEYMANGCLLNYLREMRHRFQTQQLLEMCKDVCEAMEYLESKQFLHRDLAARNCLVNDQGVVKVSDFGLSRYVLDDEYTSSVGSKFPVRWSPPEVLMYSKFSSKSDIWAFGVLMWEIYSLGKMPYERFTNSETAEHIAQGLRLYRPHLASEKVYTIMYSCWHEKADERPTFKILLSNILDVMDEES
The assay can be described thus: Cell Degradation: BTK degradation in TMD-8 cells, HTRF assay. It counts as cell-based. The following applies: 6 h treatment, IC50 (DC50) of BTK degradation. The procedure, abridged: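 TMD-8 cells treated 6 h with 8-dose 6-fold dilutions in 0.2% DMSO, then lysed and BTK quantified by HTRF (665/620 nm). Degradation % normalised to high/low controls; DC50 from four-parameter fit, Dmax as maximal degradation.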

The term IC50 denotes the concentration that gives 50% inhibition. Read a high IC50 as a need for much substance. The DC50 is the concentration at which degradation of the target reaches its halfway point. Lower therefore signals a more potent degrader. On to `Cc1cc(-c2ncnc3[nH]c(-c4ccc(N5CCN(CC6CCN(c7ccc(N8CCC(=O)NC8=O)cc7)CC6)CC5)nc4)cc23)ccc1[C@@H](C)NC(=O)c1noc(C(C)(C)C)n1` [Example 104, (R)-5-(tert-butyl)-N-(1-(4-(6-(6-(4-((1-(4-(2,4-dioxotetrahydropyrimidin-1(2H)-yl)phenyl)piperidin-4-yl)methyl)piperazin-1-yl)pyridin-3-yl)-7H-pyrrolo[2,3-d]pyrimidin-4-yl)-2-methylphenyl)ethyl)-1,2,4-oxadiazole-3-carboxamide], for which, in the assay on HEK-293 cells, the IC50 is more than 10000 nM. Also, at BTK, it took 0.6 nM to reach half-maximal degradation (DC50).

Regarding `COc1cc(-c2nc3c(-c4ccc([C@@H](C)NC(=O)c5nc(C(C)(C)C)no5)c(C)c4)ncnc3[nH]2)ccc1N1CCN(CC2CCN(c3ccc(N4CCC(=O)NC4=O)c(C)c3)CC2)CC1` [Example 113, (R)-3-(tert-butyl)-N-(1-(4-(8-(4-(4-((1-(4-(2,4-dioxotetrahydropyrimidin-1(2H)-yl)-3-methylphenyl)piperidin-4-yl)methyl)piperazin-1-yl)-3-methoxyphenyl)-9H-purin-6-yl)-2-methylphenyl)ethyl)-1,2,4-oxadiazole-5-carboxamide], the IC50 in the assay on HEK-293 cells is more than 10000 nM. On BTK, this molecule came in with a DC50 of 0.97 nM.

Turning to `Cc1nn(C2CCN(CC3CCN(c4ccc(N5CCC(=O)NC5=O)cc4)CC3)CC2)c(C)c1-c1cc2c(-c3ccc([C@@H](C)NC(=O)c4cn(C(C)(C)C)nn4)c(CO)c3)ncnc2[nH]1` [Example 122, (R)-1-(tert-butyl)-N-(1-(4-(6-(1-(1-((1-(4-(2,4-dioxotetrahydropyrimidin-1(2H)-yl)phenyl)piperidin-4-yl)methyl)piperidin-4-yl)-3,5-dimethyl-1H-pyrazol-4-yl)-7H-pyrrolo[2,3-d]pyrimidin-4-yl)-2-(hydroxymethyl)phenyl)ethyl)-1H-1,2,3-triazole-4-carboxamide], the IC50 in the assay with HEK-293 cells was determined as 4110 nM. For the same molecule, the DC50 on BTK was 0.29 nM.

For the molecule `Cc1nn(C2CCN(CC3CCN(c4ccc(N5CCC(=O)NC5=O)cc4)CC3)CC2)c(C)c1-c1cc2c(-c3ccc([C@@H](C)NC(=O)c4noc(C(C)(C)C)n4)c(CO)c3)ncnc2[nH]1` [Example 120, (R)-5-(tert-butyl)-N-(1-(4-(6-(1-(1-((1-(4-(2,4-dioxotetrahydropyrimidin-1(2H)-yl)phenyl)piperidin-4-yl)methyl)piperidin-4-yl)-3,5-dimethyl-1H-pyrazol-4-yl)-7H-pyrrolo[2,3-d]pyrimidin-4-yl)-2-(hydroxymethyl)phenyl)ethyl)-1,2,4-oxadiazole-3-carboxamide], in the assay with HEK-293 cells, the IC50 is more than 10000 nM. The DC50 on BTK was 0.18 nM.

In the case of `Cc1c(NC(=O)c2ccc(C(C)(C)O)cc2F)cc(F)cc1-c1ncnc2[nH]c(-c3ccc(C4CCN(CC5CCN(c6ccc(N7CCC(=O)NC7=O)cc6)CC5)CC4)cc3)cc12` [Example 28, N-(3-(6-(4-(1-((1-(4-(2,4-dioxotetrahydropyrimidin-1(2H)-yl)phenyl)piperidin-4-yl)methyl)piperidin-4-yl)phenyl)-7H-pyrrolo[2,3-d]pyrimidin-4-yl)-5-fluoro-2-methylphenyl)-2-fluoro-4-(2-hydroxypropan-2-yl)benzamide], in the assay on HEK-293 cells, the IC50 was 4240 nM. The DC50 on BTK is 1.5 nM.

In the assay with HEK-293 cells, `Cc1cc(N2CCC(CN3CCN(c4ccc(-c5cc6c(-c7ccc([C@@H](C)NC(=O)c8noc(C(C)(C)C)n8)c(C)c7F)ncnc6[nH]5)nc4)CC3)CC2)ccc1N1CCC(=O)NC1=O` [Example 128, (R)-5-(tert-butyl)-N-(1-(4-(6-(5-(4-((1-(4-(2,4-dioxotetrahydropyrimidin-1(2H)-yl)-3-methylphenyl)piperidin-4-yl)methyl)piperazin-1-yl)pyridin-2-yl)-7H-pyrrolo[2,3-d]pyrimidin-4-yl)-3-fluoro-2-methylphenyl)ethyl)-1,2,4-oxadiazole-3-carboxamide] gave an IC50 of more than 10000 nM. The molecule also returned a 50% degradation concentration (DC50) at BTK of 0.47 nM.

In turn, `Cc1c(-c2ncnc3[nH]c(-c4ccc(C5CCN(CC6CCN(c7ccc(N8CCC(=O)NC8=O)cc7)CC6)CC5)cc4)cc23)cccc1N1CCn2c(cc3c2CC(C)(C)C3)C1=O` [Example 9, 1-(4-(4-((4-(4-(4-(3-(7,7-dimethyl-1-oxo-1,3,4,6,7,8-hexahydro-2H-cyclopenta[4,5]pyrrolo[1,2-a]pyrazin-2-yl)-2-methylphenyl)-7H-pyrrolo[2,3-d]pyrimidin-6-yl)phenyl)piperidin-1-yl)methyl)piperidin-1-yl)phenyl)dihydropyrimidine-2,4(1H,3H)-dione] came in with an IC50 in the assay on HEK-293 cells of 746 nM. For the same molecule, it took 7.2 nM to reach half-maximal degradation at BTK (DC50).

Molecule `Cc1cc(-c2ncnc3[nH]c(-c4ccc(C5CCN(CC6CCN(c7ccc(N8CCC(=O)NC8=O)cc7)CC6)CC5)cc4)cc23)ccc1CNC(=O)c1nc(C(C)(C)C)no1` [Example 1, 3-(tert-butyl)-N-(4-(6-(4-(1-((1-(4-(2,4-dioxotetrahydropyrimidin-1(2H)-yl)phenyl)piperidin-4-yl)methyl)piperidin-4-yl)phenyl)-7H-pyrrolo[2,3-d]pyrimidin-4-yl)-2-methylbenzyl)-1,2,4-oxadiazole-5-carboxamide] registered an IC50 in the assay on HEK-293 cells of more than 10000 nM. Besides, the DC50 on BTK amounted to 0.54 nM.

`Cc1cc(-c2ncnc3[nH]c(-c4ccc(N5CCN(CC6CCN(c7ccc(N8CCC(=O)NC8=O)cc7)CC6)CC5)cn4)cc23)ccc1[C@H](C)NC(=O)c1nc(C(C)(C)C)no1` [Example 147, (S)-3-(tert-butyl)-N-(1-(4-(6-(5-(4-((1-(4-(2,4-dioxotetrahydropyrimidin-1(2H)-yl)phenyl)piperidin-4-yl)methyl)piperazin-1-yl)pyridin-2-yl)-7H-pyrrolo[2,3-d]pyrimidin-4-yl)-2-methylphenyl)ethyl)-1,2,4-oxadiazole-5-carboxamide] showed a half-inhibitory concentration (IC50) in the assay on HEK-293 cells of more than 10000 nM. On BTK, half-maximal degradation (DC50) was put at 52.7 nM.

In the assay on HEK-293 cells, `Cc1cc(-c2ncnc3[nH]c(-c4ccc(N5CCN(CC6CCN(c7ccc(N8CCC(=O)NC8=O)cc7)CC6)CC5)cc4)cc23)ccc1CNC(=O)c1cnn(C(C)(C)C)c1` [Example 35, 1-(tert-butyl)-N-(4-(6-(4-(4-((1-(4-(2,4-dioxotetrahydropyrimidin-1(2H)-yl)phenyl)piperidin-4-yl)methyl)piperazin-1-yl)phenyl)-7H-pyrrolo[2,3-d]pyrimidin-4-yl)-2-methylbenzyl)-1H-pyrazole-4-carboxamide] had an IC50 of more than 10000 nM. Besides, the DC50 at BTK came out at 0.63 nM.

`Cc1cc(-c2ncnc3[nH]c(-c4ccc(N5CCN(CC6CCN(c7ccc(N8CCC(=O)NC8=O)cc7)CC6)CC5)nc4)cc23)ccc1[C@H](C)NC(=O)c1nc(C(C)(C)C)no1` [Example 148, (S)-3-(tert-butyl)-N-(1-(4-(6-(6-(4-((1-(4-(2,4-dioxotetrahydropyrimidin-1(2H)-yl)phenyl)piperidin-4-yl)methyl)piperazin-1-yl)pyridin-3-yl)-7H-pyrrolo[2,3-d]pyrimidin-4-yl)-2-methylphenyl)ethyl)-1,2,4-oxadiazole-5-carboxamide] came in with an IC50 with HEK-293 cells of 278 nM. Besides, at BTK, it took 134 nM to reach half-maximal degradation (DC50).

In the case of `C[C@@H](NC(=O)c1noc(C(C)(C)C)n1)c1ccc(-c2ncnc3[nH]c(-c4ccc(N5CCN(CC6CCN(c7ccc(N8CCC(=O)NC8=O)cc7)CC6)CC5)nc4)cc23)cc1F` [Example 34, (R)-5-(tert-butyl)-N-(1-(4-(6-(6-(4-((1-(4-(2,4-dioxotetrahydropyrimidin-1(2H)-yl)phenyl)piperidin-4-yl)methyl)piperazin-1-yl)pyridin-3-yl)-7H-pyrrolo[2,3-d]pyrimidin-4-yl)-2-fluorophenyl)ethyl)-1,2,4-oxadiazole-3-carboxamide], the IC50 in the assay with HEK-293 cells was more than 10000 nM. For the same molecule, at BTK, half-maximal degradation (DC50) was put at 1.2 nM.

Regarding `Cc1cc(-c2ncnc3[nH]c(-c4ccc(N5CCN(CC6CCN(c7ccc(N8CCC(=O)NC8=O)cc7)CC6)CC5)cc4)cc23)c(F)cc1[C@@H](C)NC(=O)c1nc(C(C)(C)C)no1` [Example 79, (R)-3-(tert-butyl)-N-(1-(4-(6-(4-(4-((1-(4-(2,4-dioxotetrahydropyrimidin-1(2H)-yl)phenyl)piperidin-4-yl)methyl)piperazin-1-yl)phenyl)-7H-pyrrolo[2,3-d]pyrimidin-4-yl)-5-fluoro-2-methylphenyl)ethyl)-1,2,4-oxadiazole-5-carboxamide], the IC50 with HEK-293 cells is more than 10000 nM. Also, at BTK, the DC50 amounted to 1.5 nM.

In the assay with HEK-293 cells, `Cc1cc(-c2ncnc3[nH]c(-c4ccc(N5CCN(CC6CCN(c7ccc(N8CCC(=O)NC8=O)cc7)CC6)CC5)cc4)cc23)ccc1CNC(=O)c1noc(C(C)(C)C)n1` [Example 30, 5-(tert-butyl)-N-(4-(6-(4-(4-((1-(4-(2,4-dioxotetrahydropyrimidin-1(2H)-yl)phenyl)piperidin-4-yl)methyl)piperazin-1-yl)phenyl)-7H-pyrrolo[2,3-d]pyrimidin-4-yl)-2-methylbenzyl)-1,2,4-oxadiazole-3-carboxamide] came in with an IC50 of more than 10000 nM. At BTK, this molecule gave a DC50 of 1.7 nM.

`C=C(C)c1ccc(C(=O)Nc2cc(F)cc(-c3ncnc4[nH]c(-c5ccc(C6CCN(CC7CCN(c8ccc(N9CCC(=O)NC9=O)cc8)CC7)CC6)cc5)cc34)c2C)c(F)c1` [Example 29, N-(3-(6-(4-(1-((1-(4-(2,4-dioxotetrahydropyrimidin-1(2H)-yl)phenyl)piperidin-4-yl)methyl)piperidin-4-yl)phenyl)-7H-pyrrolo[2,3-d]pyrimidin-4-yl)-5-fluoro-2-methylphenyl)-2-fluoro-4-(prop-1-en-2-yl)benzamide] returned an IC50 with HEK-293 cells of more than 10000 nM. Further, the DC50 on BTK was determined as 10.2 nM.
